# Values of other authors in article PMC8463262 (Acta Pharmaceutica Sinica. B, 2020).
# Test system: PRMT5
# Conditions: read-out: IC50 PRMT5
smiles,measurement,value
CCNC(=O)NCCSC[C@H]1O[C@@H](n2cnc3c(N)ncnc32)[C@H](O)[C@@H]1O [DS437],IC50,6 µM
